Experimental data taken from patent US11725027B2, “Hypersensitive response elicitor-derived peptides and use thereof” (priority 2016, dated 2023).
Read-outs that look alike come from different tables or passages of the source. Marks after values point to notes of the source that are not given here. No end group written: not given here.

Assays:
[1] = test system: Nicotiana tabacum cultivar xanthi plants; assay: Hypersensitive Response (HR) induction in tobacco leaves; type: in vivo; design: key to HR: Plants are considered HR-positive (“HR+”) if they exhibit wide-spread macroscopic cell death visible to the naked eye, accompanied by wilting and browning of the affected tissue within 48 hours; Plants are considered HR-negative (“HR−”) if they exhibit no discernible wilting or tissue death observable by naked eye; details: tobacco leaf infused with 500, 250, 125, 62.5, 31.25 μg/ml peptide solutions, scored over 48 hours
Excerpt: A property of a peptide to elicit a hypersensitive response, or not, upon infiltration or application of the peptide to plant tissues can be measured by applying the peptide in dry powder form or in solution form to a plant, particularly though not exclusively a plant leaf.
The minimal eliciting sequence derived from was developed based on the sequence of the hrex gene from Xanthomonas campestris pv. pelargonii. A number of truncated and mutated sequences were synthesized and tested for Hypersensitive Response induction (results in Table 4). HR in tobacco was tested as described in Wei, Science 257:85-88 (1992), which is hereby incorporated by reference in its entirety. Briefly, peptides were dissolved at a concentration of 500 μg/ml in aqueous solution. Four serial dilutions were performed with an equal volume of water, yielding peptide samples at 500, 250, 125, 62.5, 31.25 μg/ml peptide solutions. Nicotiana tabacum cultivar xanthi plants were used at 5-7 weeks old (preflowering). Leaves were lightly punctured with a toothpick in a middle leaf panel. Peptide solutions were then infused via needle-less syringe into the wound, filling the panel. Each peptide sample was infused into a leaf of 2 different plants. The leaves were observed and scored over the next 48 hours for withering and browning, lesions typical of programmed cell death. These studies had […] main goals: (1) determine the minimal sequence sufficient for HR elicitation (2) increase the solution stability of the peptides; (3) make disruptive mutations to verify the residues which are most important for HR elicitation; (4) make conservative mutations to identify the degree of specificity for particular amino acids.

corn = assay: Drought resistance in corn (greenhouse, spray); type: in vivo; details: corn under drought
Method: (§1) The effectiveness of peptide treatment in reducing drought stress was assessed in corn and soy. 3.5 inch pots were filled with Sunshine #1 soil (SunGro Horticulture), fertilized with a 20-10-20 mixture. The soil was soaked and drained overnight. Seeds (either corn or soy, manually inspected to ensure uniform seed size) were planted at a depth of 1 inch for germination. Plants were grown in a greenhouse under 16 hour light days at >70° F. and 8 hour dark nights at >65° F. Prior to drought conditions, the plants were well-watered.
When the plants reached the V1 stage, plants were culled to achieve a uniform height (abnormally large and small plants were removed). Plants were then randomly assigned to control (spray without peptide) or treatment (spray with peptide) groups and heights were measured. Peptide was made up in a solution of 0.2 ug/ml or 2 ug/ml in distilled water+0.01% Tween-20, and applied as a fine mist from a spray bottle until the solution drips from the leaves. After the peptide solutions were dried, the plants were again randomized in a randomized complete block design. Drought stress was initiated after the peptide treatment. This was caused by maintaining the water level at 25-50% of the maximum capacity for water (capacity was decided as the weight of the pot filled with saturated soil minus the weight of the filled pot prior to adding water).
(§2) The drought test phase ended after 2-3 weeks. At that time, the plant height was again measured and the growth rate was calculated as the difference between this and the previously-recorded height. The above-ground part portions of the plants were harvested and weighed. The above-ground portion was also dried in an oven at 70° C. for 72 hours and a dry weight was obtained. All calculations were compared with matched untreated control plants.

[2] = Stability of material bulked with maltodextrin and buffer at room temperature; type: physicochemical; details: bulked with maltodextrin and phosphate buffer (pH 8.0) or citrate buffer (pH 7.2), 48 hours
Method: Samples of material P5, P5-21, and P5-25 bulked with maltodextrin and either phosphate buffer (pH 8.0) or citrate buffer (pH 7.2) were tested for stability at room temperature for 48 hours.

[3] = Solution (formulation) stability at 50° C. (HPLC); type: physicochemical; details: 0.25% Proxel GXL
Method: Peptides solutions were analyzed by HPLC for % loss of the peptide signal over time during incubation at 50° C., relative to the time 0 sample. Peptides were analyzed until the remaining peptide concentration decreased to 80% of original (20% degradation).

[4] = test system: tobacco mosaic virus (TMV); assay: Induction of resistance to tobacco mosaic virus in tobacco; type: in vivo; details: % decline in TMV lesions vs UTC, spray 20 ug/ml; for Effectiveness Covered (%): covered leaf (systemic response); for Effectiveness Uncovered (%): uncovered leaf (local response)
Method: Peptides were tested for the induction of resistance to tobacco mosaic virus (TMV) in tobacco. Briefly, three tobacco plants at 6-8 weeks old were selected per group (samples and controls). The bottom-most leaf of the plant was covered and the plant was sprayed with a solution of water (untreated control—UTC), peptide, or Proact (positive control). The spray was applied until the leaves were fully wetted, indicated by liquid dripping from the leaves. The plants were then allowed to dry and the leaf covering was removed.
Three days post-treatment, the previously-covered leaf and a leaf on the opposite side of the plant were then lightly dusted with diatomaceous earth and 20 ul of a 1.7 ug/ml solution of purified tobacco mosaic virus was applied. The TMV solution was then spread across the leaf surface by lightly rubbing solution and the diatomaceous earth across the surface of the leaves. Two minutes after inoculation, the diatomaceous earth was rinsed off the leaves with water. 3 days after TMV inoculation, the leaves were scored based on the number of TMV lesions observed. The leaf was also scored for signs of the hypersensitive response, including yellowing and wilting of the affected leaves.
Effectiveness described in Table 6 refers to the % decline in TMV lesions on treated vs UTC plants. A reduction of TMV on covered leaves indicates a systemic immune response in the plant while reduction on uncovered leaves indicates a local response. Asterisks indicate that the P-value derived from a T-test was <0.05.

soybean cyst nematodes = assay: Seed coating with peptides compared with chemical nematode agents in soy; type: in vivo, soy (Sheyenne variety)
Method: Additional experiments will be performed to examine the effectiveness of peptide treatment in suppressing the growth of soybean cyst nematodes using one or more of the other peptides in Tables 1 and 2, including, without limitation, P5-21 and P5-25. See Example 8 below.
The effectiveness of peptides was tested in soy (Sheyenne variety) and compared with current anti-nematode chemicals. Briefly, soy seeds were commercially coated with peptide at rates of 10, 30, or 90 ug peptide per seed or with chemical nematicides Avicta Complete, Clariva Complete, Poncho/Votivo, or Velum total. 3 soy seeds were planted in a mixture of topsoil and sand (pasteurized) in a 10 cm diameter pot and were inoculated with 1500 eggs per pot at planting. 10 replicate pots were used per experimental condition. After plants emerged from the soil, the plants were thinned to one plant per pot. Plants were harvested about 45 days after planting. The following measures were taken: (1) Fresh shoot and root weights; (2) Root condition graded 0-10 for the presence of disease; (3) Nematode cysts per plant; (4) Nematode eggs per plant; and optionally (5) Male nematodes. The following values were calculated: eggs per gram of root, cysts per gram of root, and eggs per cyst.

[5] = 50° C.; for stability in buffer solutions: 50 mM buffers
Method: Briefly, the stability and resistance to chemical degradation of peptides can be assessed as follows using peptide samples having an initial purity of at least about 80%, at least about 82%, at least about 84%, at least about 86%, at least about 88%, at least about 90%, at least about 92%, at least about 94%, at least about 96%, or at least about 98%. For water stability, the peptide is dissolved directly in de-ionized water. For chemical degradation tests, the peptide is dissolved in an aqueous solution containing 50 mM pH buffer and 0.25% Proxel GXL. Exemplary pH buffers include, without limitation: (i) Citrate pH 5.6; (ii) MES pH 6.0; (iii) MOPS pH 6.5; (iv) imidazole pH 7.5; (v) Citrate pH 7.2; (vi) EDDS, pH 7.3; (vii) EDTA pH 8.0; (viii) sodium phosphate pH 8.0; or (ix) TES pH 8.0. Peptides are first dissolved in the aqueous solution at a concentration of 0.5 mg/ml. The samples are incubated at 50° C. to allow for accelerated degradation. An initial sample of the peptide is removed, diluted 10× with water, and analyzed by reverse-phase HPLC. Briefly, 20 μl of the sample is injected into the solvent flow of an HPLC instrument and analyzed on a C18 HPLC column (YMC ProPack C18, YMC, Japan, or C18 Stablebond, Agilent Technologies, USA) using either a triethylamine phosphate in water/acetonitrile gradient or a 0.1% TFA in water/0.1% TFA in acetonitrile gradient to separate different peptide species. Eluting peptides are monitored by UV absorbance at 218 nm and quantified based on the area under the peak. The area under the peak for the initial peptide sample is treated as the standard for relative quantification in subsequent runs. At regular intervals (e.g., 1, 3, 7, 10, and 14 days), each peptide sample is surveyed and analyzed by HPLC as described above.
(§3) Stability against chemical degradation was assessed in various pH buffers by creating 0.2% AI solutions of pure, chemically synthesized peptide in deionized water, 0.25% weight to volume of Proxel® GXL (biocide), and 50 millimolar (mM) of nine buffers (separately) as follows: Citrate, pH 5.6, MES pH 6.0, MOPS pH 6.5, Citrate pH 7.2, EDDS pH 7.3, imidazole pH 7.5, EDTA pH 8, Phosphate pH 8, and TES pH 8.

soy = assay: Drought resistance in soy (greenhouse, spray); type: in vivo; details: soy under cyclic drought, 2.0 ug/ml
Method: as §1, with “in” for “in corn and”, “Seeds (soy,” for “Seeds (either corn or soy,”, “of half” for “of 1”
When the plants reached the growth stage when first trifoliate expanded, plants were culled to achieve a uniform height (abnormally large and small plants were removed). Plants were then randomly assigned to control (spray without peptide) or treatment (spray with peptide) groups and heights were measured. Peptide was made up in a solution of 0.2 ug/ml or 2 ug/ml in distilled water+0.04% Tween-20, and applied as a fine mist from a spray bottle until the solution drips from the leaves. After the peptide solutions were dried, the plants were again randomized in a randomized complete block design. Cyclic drought stress was initiated after the peptide treatment. Plants were subjected to at least three drought cycles of drought stress (3-5 days of withholding water and 1 day irrigated with saturating amount of water) before harvesting.
as §2, with “weighed to obtain fresh weight.” for “weighed.”, “to obtain” for “and a”, “weight.” for “weight was obtained.”

[6] = 50 mM buffer solutions pH 5.6-8.0, 0.25% Proxel GXL
Method: as §3

[7] = EDTA buffer pH 8.0, 50 mM, after 14 days

## NQGISEKQQLDLLLAFIAAALQQ [Peptide P5-76]
[1]
  HR: Weak+
corn; 0.2 ug/ml
  Dry Weight Increase (%): 5.33* %
  Fresh Weight Increase (%): 2.00%

## SEEEEQLDQLLLAFIAAALQQ [Peptide P5-25]
[1]
  HR: -
[2]
  degradation (more than 5% loss): No significant degradation
[3]; 50 mM citrate pH 7.2, 0.09% AI
  Time before 20% degradation: 53 days
[4]
  Effectiveness Covered (%): 93* %
  Effectiveness Uncovered (%): 91* %
corn
  drought resistance, experimental results: not statistically significant
Soybean cyst nematodes; 10 ug peptide per seed
  reduction in cysts per gram root: 92%
  reduction in eggs per gram root: 94%
Soybean cyst nematodes; 30 ug peptide per seed
  reduction in cysts per gram root: 82%
  reduction in eggs per gram root: 85%
Soybean cyst nematodes; 90 ug peptide per seed
  reduction in cysts per gram root: 91%
  reduction in eggs per gram root: 93%

## SAGSEQQEDLLLMFIMMMLQQ [Peptide P5-35]
[1]
  HR: Weak+
corn; 2.0 ug/ml
  Dry Weight Increase (%): −6.57* %
  Fresh Weight Increase (%): −6.05* %

## LDLLLAFIAAALEEEEEE [Peptide P5-9]
[5]
  stability in buffer solutions: better stability compared with P5
[5]; citrate pH 7.2, 50 mM, after 14 days
  peptide remaining: above 80%
[5]; phosphate pH 8.0, 50 mM, after 14 days
  peptide remaining: above 80%

## SEEQLDQLLLMFIMMMLQQEE [Peptide P5-46]
[1]
  HR: +
[4]
  Effectiveness Covered (%): 74* %
  Effectiveness Uncovered (%): 85* %
corn; 2.0 ug/ml
  Dry Weight Increase (%): 3.71%
  Fresh Weight Increase (%): 9.05** %

## SAGSEQQLDLLLMFIMMMLQQ [Peptide P5]
[5]
  stability in buffer solutions: generally poor stability
[5]; [7]
  peptide remaining: about 40%
[2]
  degradation (more than 5% loss): No significant degradation
[3]; 50 mM phosphate pH 8.0, 30% IPA, 5 mM DTPA, 0.09% AI
  Time before 20% degradation: 21 days

## SEEQLELLLAFIAAALQQEE [Peptide P5-21]
[5]; [7]
  peptide remaining: around 80%
[5]; all buffers pH>7.0 except EDTA, 50 mM, after 14 days
  peptide remaining (stability): > 90%
[2]
  degradation (more than 5% loss): No significant degradation
[3]; 50 mM citrate pH 7.2, 20% IPA, 0.09% AI
  Time before 20% degradation: 41 days

## SEEQLDQLLLAFIAAALQEE [Peptide P5-27]
[1]
  HR: -
[3]; 50 mM imidazole pH 7.5, 50% IPA, 0.09% AI
  Time before 20% degradation: 50 days
soy
  Dry Weight Increase (%): 2.04%
  Fresh Weight Increase (%): 4.07* %

## QLELLLAFIAAALQQ [Peptide P5-5]
[6]
  solubility: Precipitation
